Five molecules from patent US5530126A, “Process for the preparation of substituted 6-(pyrazol-3yl)-1,4-benzoxazin-3-ones” (Monsanto Company, priority 1994, dated 1996) can be followed below.

What all share (type): in vivo
Assay [1] has as its system resistant broadleaf weeds such as pigweed, cocklebur, velvetleaf and hemp sesbania. The assay is described as follows: Control of resistant broadleaf weeds in crops. The settings on record: in various crops such as corn, soybean and nuts and in forestry.
Assay [2] has as its system Barnyardgrass. The assay is described as follows: Post-emergence herbicide test. To be noted: Echinochloa crus-galli, read-out: % plant inhibition (Bygr); for inhibition at 1120 g/ha: 1.12 kg/ha. The method, boiled down:
(§1)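 Greenhouse-raised seedlings and perennial propagule shoots, aged 2–3 weeks, receive an atomized spray at 10 psig. The solution or suspension carries roughly 0.4% emulsifier and is applied at 200 gallons/acre; injury is rated as % inhibition after about 11 days.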

Assay [3] relates to Downy Brome. The assay is described as follows: Post-emergence herbicide test. The settings on record: Bromus tectorum, read-out: % plant inhibition (Dobr); for inhibition at 1120 g/ha: 1.12 kg/ha. An outline of the steps: as §1
For assay [4], the system named is Indian Mustard. The experiment in a line: Post-emergence herbicide test. To be noted: Brassica juncea, read-out: % plant inhibition (Inmu); for inhibition at 1120 g/ha: 1.12 kg/ha. An outline of the steps: as §1
Assay [5] relates to Seedling johnsongrass. The experiment in a line: Post-emergence herbicide test. The settings on record: Sorghum halepense, read-out: % plant inhibition (Sejg); for inhibition at 1120 g/ha: 1.12 kg/ha. An outline of the steps: as §1
Assay [6] deals with Annual bluegrass. The experiment in a line: Post-emergence herbicide test. The settings on record: read-out: % plant inhibition (Anbg); for inhibition at 1120 g/ha: 1.12 kg/ha. An outline of the steps:
as §1

Assay [7] has as its system Wild buckwheat. The assay is described as follows: Post-emergence herbicide test. The settings on record: Fallopia convolvulus, read-out: % plant inhibition (Wibw); for inhibition at 1120 g/ha: 1.12 kg/ha. The method, boiled down:
as §1

The test system of assay [8] is Morningglory. The assay is described as follows: Post-emergence herbicide test. To be noted: Ipomoea, read-out: % plant inhibition (Mogl); for inhibition at 1120 g/ha: 1.12 kg/ha. An outline of the steps:
as §1

The subject of assay [9] is Cocklebur. The experiment in a line: Post-emergence herbicide test. The settings on record: Xanthium strumarium, read-out: % plant inhibition (Cobu); for inhibition at 1120 g/ha: 1.12 kg/ha. The method, boiled down:
as §1

Assay [10] deals with Yellow nutsedge. The experiment in a line: Post-emergence herbicide test. The settings on record: Cyperus, read-out: % plant inhibition (Yens); for inhibition at 1120 g/ha: 1.12 kg/ha. An outline of the steps: as §1
In assay [11] the test system is Velvetleaf. The experiment in a line: Post-emergence herbicide test. To be noted: Abutilon theophrasti, read-out: % plant inhibition (Vele); for inhibition at 1120 g/ha: 1.12 kg/ha. The method, boiled down:
as §1

Assay [12] has as its system Barnyardgrass. The assay is described as follows: Pre-emergence herbicide test. The settings on record: Echinochloa crus-galli, read-out: % plant inhibition (Bygr); for inhibition at 1120 g/ha: 1.12 kg/ha. An outline of the steps:
(§2)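 Percent growth inhibition rated roughly 11 days (range 10–14) after treatment, with pans held on a greenhouse bench and watered from below. Compound in acetone or water was sprayed onto the seed bed before covering with a layer of untreated topsoil.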

In assay [13] the test system is Downy Brome. The experiment in a line: Pre-emergence herbicide test. The settings on record: Bromus tectorum, read-out: % plant inhibition (Dobr); for inhibition at 1120 g/ha: 1.12 kg/ha. An outline of the steps:
as §2

Assay [14] has as its system Indian Mustard. The experiment in a line: Pre-emergence herbicide test. The settings on record: Brassica juncea, read-out: % plant inhibition (Inmu); for inhibition at 1120 g/ha: 1.12 kg/ha. An outline of the steps: as §2
Assay [15] concerns Seedling johnsongrass. The experiment in a line: Pre-emergence herbicide test. To be noted: Sorghum halepense, read-out: % plant inhibition (Sejg); for inhibition at 1120 g/ha: 1.12 kg/ha. An outline of the steps: as §2
The subject of assay [16] is Annual bluegrass. The experiment in a line: Pre-emergence herbicide test. To be noted: read-out: % plant inhibition (Anbg); for inhibition at 1120 g/ha: 1.12 kg/ha. The method, boiled down:
as §2

The subject of assay [17] is Wild buckwheat. The assay is described as follows: Pre-emergence herbicide test. The settings on record: Fallopia convolvulus, read-out: % plant inhibition (Wibw); for inhibition at 1120 g/ha: 1.12 kg/ha. An outline of the steps: as §2
Assay [18] relates to Morningglory. The assay is described as follows: Pre-emergence herbicide test. The settings on record: Ipomoea, read-out: % plant inhibition (Mogl); for inhibition at 1120 g/ha: 1.12 kg/ha. The method, boiled down: as §2
For assay [19], the system named is Cocklebur. The experiment in a line: Pre-emergence herbicide test. To be noted: Xanthium strumarium, read-out: % plant inhibition (Cobu); for inhibition at 1120 g/ha: 1.12 kg/ha. An outline of the steps:
as §2

Assay [20] has as its system Yellow nutsedge. The experiment in a line: Pre-emergence herbicide test. To be noted: Cyperus, read-out: % plant inhibition (Yens); for inhibition at 1120 g/ha: 1.12 kg/ha. The method, boiled down:
as §2

Assay [21] concerns Velvetleaf. The assay is described as follows: Pre-emergence herbicide test. To be noted: Abutilon theophrasti, read-out: % plant inhibition (Vele); for inhibition at 1120 g/ha: 1.12 kg/ha. An outline of the steps: as §2

With `C#CCN1C(=O)COc2cc(F)c(-c3nn(C)c(C(F)(F)F)c3Cl)cc21` [Compound 446, 6-(4-Chloro-1-methyl-5-(trifluoromethyl)-1H-pyrazol-3-yl)-7-fluoro-4-(2-propynyl)-2H-1,4-benzoxazin-3-(4H)-one], in assay [1], the “control of resistant broadleaf weeds” value is on record as “outstanding control”. For the same molecule, the inhibition at 1120 g/ha came to 100% in [2]; 100% in [3]; 100% in assay [4]; 90% in assay [5]; 100% in [6]; 100% in [7]. Also, the inhibition at 1120 g/ha came to 100% in [8]; 100% in assay [9]; 40% in assay [10]; 100% in assay [11]; 80% in [12]; 90% in assay [13]. Also, the inhibition at 1120 g/ha in assay [14] is 100%; in assay [15] it was 80%; in [16], 100%; in [17], 100%; in [18] it was 100%; in [19] it was 100%. Further, the inhibition at 1120 g/ha in assay [20] was found to be 60%; in [21], 90%.

For `CC(C)OC(=O)COc1cc(-c2nn(C)c(C(F)(F)F)c2Cl)c(F)cc1Cl` [Compound 282, (2-Chloro-5-(4-chloro-1-methyl-5-(trifluoromethyl)-1H-pyrazol-3-yl)-4-fluorophenoxy)acetic acid, 1-methylethyl ester], the “control of resistant broadleaf weeds” value in assay [1] is “outstanding control”. In addition, the inhibition at 1120 g/ha came to 30% in assay [2]; 0% in assay [3]; 10% in [4]; 20% in assay [5]; 0% in assay [6]; 100% in assay [7]. Also, the inhibition at 1120 g/ha in assay [8] came out at 70%; in assay [9], 100%; in [10], 10%; in assay [11] it was 100%; in [12], 20%; in assay [13] it was 20%. In addition, the inhibition at 1120 g/ha in [14] was found to be 30%; in assay [15], 30%; in assay [16], 20%; in assay [17], 90%; in assay [18], 90%; in assay [19] it was 30%. In addition, the inhibition at 1120 g/ha in [20] amounted to 40%; in [21] it was 100%.

`CC(C)OC(=O)c1cc(-c2nn(C)c(C(F)(F)F)c2Cl)c(F)cc1Cl` [Compound 135, 2-chloro-5-[4-chloro-1-methyl-5-(trifluoromethyl)-1H-pyrazol-3-yl]-4-fluorobenzoic acid, 1-methylethyl ester]: in assay [1], the “control of resistant broadleaf weeds” value is “outstanding control”. The inhibition at 1120 g/ha in [2], in [3], in assay [4], in assay [5], in assay [6] and in assay [7] was 100% in each case. For the same molecule, the inhibition at 1120 g/ha came out at 100% in [8]; 100% in assay [9]; 20% in assay [10]; 100% in [11]; 100% in [12]; 100% in assay [13]. For the same molecule, the inhibition at 1120 g/ha in [14] was 100%; in assay [15], 100%; in assay [16] it was 100%; in assay [17] it was 100%; in [18], 90%; in assay [19], 90%. Besides, the inhibition at 1120 g/ha in assay [20] is 0%; in assay [21] it was 100%.

Regarding `C#CCOc1cc(-c2nn(C)c(C(F)(F)F)c2Cl)c(F)cc1Cl` [Compound 261, 4-Chloro-3-(4-chloro-2-fluoro-5-propargyl-oxyphenyl)-1-methyl-5-(trifluoromethyl)-1H-pyrazole], the “control of resistant broadleaf weeds” value in [1] is “outstanding control”. In addition, the inhibition at 11210 g/ha in assay [2] (11.21 kg/ha), in [3] (11.21 kg/ha), in assay [4] (11.21 kg/ha), in assay [5] (11.21 kg/ha), in assay [6] (11.21 kg/ha) and in assay [7] (11.21 kg/ha) was 100% in each case. In addition, the inhibition at 11210 g/ha in assay [8] (11.21 kg/ha) turned out to be 100%; in [9] (11.21 kg/ha), 100%; in assay [10] (11.21 kg/ha), 20%; in assay [11] (11.21 kg/ha), 100%; in [12] (11.21 kg/ha), 100%; in assay [13] (11.21 kg/ha) it was 100%. Moreover, the inhibition at 11210 g/ha in [14] (11.21 kg/ha), in [15] (11.21 kg/ha), in [16] (11.21 kg/ha), in assay [17] (11.21 kg/ha), in assay [18] (11.21 kg/ha) and in assay [19] (11.21 kg/ha) was 100% each time. Moreover, the inhibition at 11210 g/ha stood at 30% in [20] (11.21 kg/ha) and 100% in [21] (11.21 kg/ha).

As to `COC(=O)C(C)OC(=O)c1cc(-c2nn(C)c(C(F)(F)F)c2Cl)c(F)cc1Cl` (stereo not drawn) [Compound 137, 2-Chloro-5-(4-chloro-1-methyl-5-(trifluoromethyl)-1H-pyrazol-3-yl)-4-fluorobenzoic acid, 2-methoxy-1-methyl-2-oxoethyl ester], the “control of resistant broadleaf weeds” value in assay [1] was “outstanding control”. Moreover, the inhibition at 1120 g/ha in assay [2], in [3], in assay [4], in assay [5], in [6] and in assay [7] was 100% each time. Moreover, the inhibition at 1120 g/ha came out at 100% in assay [8]; 100% in assay [9]; 20% in assay [10]; 100% in assay [11]; 70% in assay [12]; 80% in assay [13]. For the same molecule, the inhibition at 1120 g/ha in assay [14] came to 100%; in [15] it was 50%; in [16] it was 70%; in assay [17], 90%; in assay [18] it was 100%; in assay [19] it was 100%. Also, the inhibition at 1120 g/ha is 20% in assay [20] and 100% in assay [21].
